# Tests used:
# [1] = target: T1, SMARCA4-HiBiT HeLa cells (protein which is expressed from the SMARCA4 gene) (Homo sapiens, UniProt P51532); test: SMARCA4 degradation assay (HiBiT-fusion HeLa cell line, 24 h, luminescence); format: cell-based
# T1 construct: protein which is expressed from the SMARCA2 and SMARCA4 genes; host or cells: HeLa (SMARCA4-HiBiT engineered line)
# In short: (§1)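 SMARCA2- or SMARCA4-HiBiT HeLa cells seeded overnight at 37° C, then given compound as a 10-point dilution (typically 10 μM to 300 pM) for 24 h at 37° C. Protein level read by HiBiT lytic detection luminescence; DC50 from dose-response curves; degradation also scored at 1 μM.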
# [2] = target: T2, SMARCA2-HiBiT HeLa cells (protein which is expressed from the SMARCA2 gene) (Homo sapiens, UniProt P51531); test: SMARCA2 degradation assay (HiBiT-fusion HeLa cell line, 24 h, luminescence); format: cell-based
# T2 construct: protein which is expressed from the SMARCA2 and SMARCA4 genes; host or cells: HeLa (SMARCA2-HiBiT engineered line)
# In short: as §1
# T2 sequence (P51531 whole entry, the tested form may be a part): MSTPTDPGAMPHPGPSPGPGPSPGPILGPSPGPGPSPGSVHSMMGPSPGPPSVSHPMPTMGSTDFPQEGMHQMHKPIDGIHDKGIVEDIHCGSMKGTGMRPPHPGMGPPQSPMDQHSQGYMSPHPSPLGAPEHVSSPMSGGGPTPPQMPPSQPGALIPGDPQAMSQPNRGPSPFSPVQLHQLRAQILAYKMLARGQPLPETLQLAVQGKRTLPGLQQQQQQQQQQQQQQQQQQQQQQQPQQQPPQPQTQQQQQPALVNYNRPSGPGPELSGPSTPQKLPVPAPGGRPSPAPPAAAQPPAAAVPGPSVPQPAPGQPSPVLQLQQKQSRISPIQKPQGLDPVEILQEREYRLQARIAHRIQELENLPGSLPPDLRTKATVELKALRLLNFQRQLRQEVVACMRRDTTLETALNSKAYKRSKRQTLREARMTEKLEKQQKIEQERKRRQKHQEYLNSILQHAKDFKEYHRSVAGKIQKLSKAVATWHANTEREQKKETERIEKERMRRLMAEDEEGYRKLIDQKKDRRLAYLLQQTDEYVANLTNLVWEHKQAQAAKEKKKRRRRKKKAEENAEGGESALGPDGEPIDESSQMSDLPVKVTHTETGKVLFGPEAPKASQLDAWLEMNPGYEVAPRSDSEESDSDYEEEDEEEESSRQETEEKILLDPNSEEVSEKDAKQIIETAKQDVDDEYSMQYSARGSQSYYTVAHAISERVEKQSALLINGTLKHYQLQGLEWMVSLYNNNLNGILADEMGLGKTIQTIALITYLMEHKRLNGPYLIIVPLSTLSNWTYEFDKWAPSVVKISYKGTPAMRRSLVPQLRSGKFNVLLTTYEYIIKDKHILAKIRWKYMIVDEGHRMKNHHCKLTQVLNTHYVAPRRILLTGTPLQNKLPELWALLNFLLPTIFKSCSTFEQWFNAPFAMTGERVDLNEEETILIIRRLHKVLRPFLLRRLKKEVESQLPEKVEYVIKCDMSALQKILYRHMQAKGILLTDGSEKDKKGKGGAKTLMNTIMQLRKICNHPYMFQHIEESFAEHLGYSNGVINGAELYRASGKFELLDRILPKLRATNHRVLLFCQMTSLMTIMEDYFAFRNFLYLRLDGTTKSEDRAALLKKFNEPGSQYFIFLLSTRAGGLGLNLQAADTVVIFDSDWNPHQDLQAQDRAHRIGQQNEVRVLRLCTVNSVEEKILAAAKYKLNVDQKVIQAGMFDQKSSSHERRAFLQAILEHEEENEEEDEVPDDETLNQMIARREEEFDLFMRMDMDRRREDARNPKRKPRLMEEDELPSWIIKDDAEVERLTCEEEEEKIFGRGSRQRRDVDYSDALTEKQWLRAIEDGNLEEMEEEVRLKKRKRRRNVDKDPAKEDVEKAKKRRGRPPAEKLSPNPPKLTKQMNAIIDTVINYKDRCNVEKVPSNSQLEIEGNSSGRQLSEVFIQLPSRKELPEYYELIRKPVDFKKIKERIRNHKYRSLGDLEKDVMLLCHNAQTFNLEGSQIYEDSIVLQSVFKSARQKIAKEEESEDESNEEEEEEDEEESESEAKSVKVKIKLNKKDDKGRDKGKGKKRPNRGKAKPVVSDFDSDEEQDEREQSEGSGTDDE
# T1 sequence (P51532 whole entry, the tested form may be a part): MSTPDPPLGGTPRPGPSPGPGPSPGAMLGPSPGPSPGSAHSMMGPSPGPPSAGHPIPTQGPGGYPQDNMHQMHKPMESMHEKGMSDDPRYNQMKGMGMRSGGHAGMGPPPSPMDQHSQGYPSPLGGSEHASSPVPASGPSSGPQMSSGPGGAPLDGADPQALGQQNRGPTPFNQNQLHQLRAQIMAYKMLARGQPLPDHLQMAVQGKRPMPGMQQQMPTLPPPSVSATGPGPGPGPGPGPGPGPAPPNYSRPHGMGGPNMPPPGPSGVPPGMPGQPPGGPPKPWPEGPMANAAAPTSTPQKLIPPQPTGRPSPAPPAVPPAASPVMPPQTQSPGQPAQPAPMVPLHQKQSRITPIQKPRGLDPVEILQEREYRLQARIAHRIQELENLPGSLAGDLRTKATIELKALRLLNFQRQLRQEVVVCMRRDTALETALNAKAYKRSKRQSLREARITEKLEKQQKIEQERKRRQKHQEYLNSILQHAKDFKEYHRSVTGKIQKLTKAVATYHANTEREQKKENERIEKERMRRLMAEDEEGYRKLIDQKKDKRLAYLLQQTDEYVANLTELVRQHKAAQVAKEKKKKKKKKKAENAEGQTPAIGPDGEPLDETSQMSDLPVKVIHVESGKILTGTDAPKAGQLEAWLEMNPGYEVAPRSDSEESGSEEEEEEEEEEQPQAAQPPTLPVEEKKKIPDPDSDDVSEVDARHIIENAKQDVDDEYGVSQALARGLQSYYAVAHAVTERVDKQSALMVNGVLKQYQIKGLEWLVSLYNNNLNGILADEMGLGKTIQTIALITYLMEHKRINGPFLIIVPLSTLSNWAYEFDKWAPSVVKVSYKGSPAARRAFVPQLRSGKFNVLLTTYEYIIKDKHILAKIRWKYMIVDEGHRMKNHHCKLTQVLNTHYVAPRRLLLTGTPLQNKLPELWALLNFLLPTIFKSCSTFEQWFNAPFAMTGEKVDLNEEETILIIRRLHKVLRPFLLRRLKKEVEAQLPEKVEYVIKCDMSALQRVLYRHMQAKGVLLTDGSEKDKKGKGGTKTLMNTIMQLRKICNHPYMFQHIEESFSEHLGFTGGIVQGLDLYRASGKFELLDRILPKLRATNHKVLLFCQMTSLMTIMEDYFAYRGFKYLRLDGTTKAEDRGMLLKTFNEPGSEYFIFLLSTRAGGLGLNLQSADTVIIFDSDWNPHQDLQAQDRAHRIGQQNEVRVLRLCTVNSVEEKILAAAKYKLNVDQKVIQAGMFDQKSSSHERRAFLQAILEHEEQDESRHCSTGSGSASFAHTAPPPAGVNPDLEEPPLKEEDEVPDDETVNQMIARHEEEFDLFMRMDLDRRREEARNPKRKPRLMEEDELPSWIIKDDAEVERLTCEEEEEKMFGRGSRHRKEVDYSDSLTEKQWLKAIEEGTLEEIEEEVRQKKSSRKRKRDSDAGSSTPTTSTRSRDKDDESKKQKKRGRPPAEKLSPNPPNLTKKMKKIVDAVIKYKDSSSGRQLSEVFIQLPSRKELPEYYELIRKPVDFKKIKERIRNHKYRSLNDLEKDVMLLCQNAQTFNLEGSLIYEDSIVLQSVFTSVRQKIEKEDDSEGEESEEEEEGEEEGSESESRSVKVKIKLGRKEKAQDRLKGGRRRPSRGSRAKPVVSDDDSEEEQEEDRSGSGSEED
DC50 [1],inhibition at 1 µM [1],DC50 [2],SMARCA2 % Degradation @ 1 μM [2],Structure (SMILES)
50 to 500 nM,30 to 70%,50 to 500 nM,++ (++=30-70%),"Nc1nnc(-c2ccccc2O)cc1N1CCN(c2ccnc(C#CCNC(=O)c3noc4ccccc34)n2)CC1 [Compound P-54, N-(3-(4-(4-(3-amino-6-(2-hydroxyphenyl)pyridazin-4-yl)piperazin-1-yl)pyrimidin-2-yl)prop-2-yn-1-yl)benzo[d]isoxazole-3-carboxamide]"
50 to 500 nM,> 70%,50 to 500 nM,+++ (+++=>70%),"Nc1nnc(-c2ccccc2O)cc1N1CCCN(c2ccnc(C#CC34CCCN3CCC4)n2)CC1 [Compound P-355, 0-[6-amino-5-(4-{2-[2-(hexahydro-1H-pyrrolizin-7a-yl)ethynyl]-4-pyrimidinyl}-1,4-diazepan-1-yl)-3-pyridazinyl]phenol]"
50 to 500 nM,30 to 70%,500 to 5000 nM,++ (++=30-70%),"Nc1nnc(-c2ccccc2O)cc1N1CCCN(c2ccnc(C#CCNC(=O)NC3CCC3)n2)CC1 [Compound P-325, 0-[6-amino-5-(4-{2-[3-(3-cyclobutylureido)-1-propynyl]-4-pyrimidinyl}-1,4-diazepan-1-yl)-3-pyridazinyl]phenol]"
< 50 nM,30 to 70%,< 50 nM,++ (++=30-70%),"C[C@@H]1CCN(c2cc(-c3ccccc3O)nnc2N)CCN1c1ccnc(C#CCN2CC[C@H](F)C2)n1 [Compound P-244, o-{5-[(R)-4-(2-{3-[(S)-3-fluoro-1-pyrrolidinyl]-1-propynyl}-4-pyrimidinyl)-5-methyl-1,4-diazepan-1-yl]-6-amino-3-pyridaziny1}phenol]"
50 to 500 nM,30 to 70%,50 to 500 nM,++ (++=30-70%),"Nc1nnc(-c2ccccc2O)cc1N1CCN(c2ccnc(C#CCNC(=O)c3cn4ccncc4n3)n2)CC1 [Compound P-60, N-(3-(4-(4-(3-amino-6-(2-hydroxyphenyl)pyridazin-4-yl)piperazin-1-yl)pyrimidin-2-yl)prop-2-yn-1-yl)imidazo[1,2-a]pyrazinc-2-carboxamidc]"
50 to 500 nM,30 to 70%,50 to 500 nM,++ (++=30-70%),"Nc1nnc(-c2ccccc2O)cc1N1CCN(c2ccnc(C#CCNC(=O)C3COc4ccccc4O3)n2)CC1 (stereo not shown) [Compound P-61, N-(3-(4-(4-(3-amino-6-(2-hydroxyphenyl)pyridazin-4-yl)piperazin-1-yl)pyrimidin-2-yl)prop-2-yn-1-yl)-2,3-dihydrobenzo[b][1,4]dioxine-2-carboxamide]"
< 50 nM,< 30%,50 to 500 nM,++ (++=30-70%),"CNCC#Cc1nccc(N2CCN(c3cc(-c4ccccc4O)nnc3N)CC[C@H]2C)n1 [Compound P-297, 0-{5-[(R)-5-methyl-4-{2-[3-(methylamino)-1-propynyl]-4-pyrimidinyl}-1,4-diazepan-1-yl]-6-amino-3-pyridazinyl} phenol]"
500 to 5000 nM,30 to 70%,500 to 5000 nM,++ (++=30-70%),"Nc1nnc(-c2ccccc2O)cc1N1CCCN(c2ccnc(C#CCN3CCC3)n2)CC1 [Compound P-308, 0-[6-amino-5-(4-{2-[3-(1-azetidinyl)-1-propynyl]-4-pyrimidinyl}-1,4-diazepan-1-yl)-3-pyridazinyl]phenol]"
500 to 5000 nM,< 30%,500 to 5000 nM,+ (+=<30%),"NCC#Cc1nccc(N2CCC3(CCCN(c4cc(-c5ccccc5O)nnc4N)C3)CC2)n1 [Compound P-89, 2-(6-amino-5-(9-(2-(3-aminoprop-1-yn-1-yl)pyrimidin-4-yl)-2,9-diazaspiro[5.5]undecan-2-yl)pyridazin-3-yl)phenol]"

# Further lines, the molecule ahead of its results:
Structure (SMILES),DC50 [1],inhibition at 1 µM [1],DC50 [2],SMARCA2 % Degradation @ 1 μM [2]
"C[C@@H]1CCN(c2cc(-c3ccccc3O)nnc2N)CCN1c1ccnc(C#CC2CN(CC(F)F)C2)n1 [Compound P-174, o-{5-[(R)-4-(2-{2-[1-(2,2-difluoroethyl)-3-azetidinyl]ethynyl}-4-pyrimidinyl)-5-methyl-1,4-diazepan-1-y1]-6-amino-3-pyridazinyl}phenol]",50 to 500 nM,30 to 70%,50 to 500 nM,+++ (+++=>70%)
"CNCC#Cc1nccc(N2C[C@H]3C[C@@H]2CN3c2cc(-c3ccccc3O)nnc2N)n1 [Compound P-295, 0-{5-[(1R,4R)-5-{2-[3-(methylamino)-1-propynyl]-4-pyrimidinyl}-2,5-diazabicyclo[2.2.1]hept-2-y1]-6-amino-3-pyridazinyl} phenol]",50 to 500 nM,< 30%,50 to 500 nM,++ (++=30-70%)
"Nc1nnc(-c2ccccc2O)cc1N1CC[C@@H]2[C@H]1CN2c1ccnc(C#CCNC(=O)c2cc3ncccn3n2)n1 [Compound P-47, N-(3-(4-((1R,5R)-2-(3-amino-6-(2-hydroxyphenyl)pyridazin-4-yl)-2,6-diazabicyclo[3.2.0]heptan-6-yl)pyrimidin-2-yl)prop-2-yn-1-yl)pyrazolo[1,5-a]pyrimidine-2-carboxamide]",500 to 5000 nM,< 30%,500 to 5000 nM,+ (+=<30%)
"C[C@@H]1CCN(c2cc(-c3ccccc3O)nnc2N)CCN1c1ccnc(C#CCN2C3CCCC2CC3)n1 [Compound P-228, o-{5-[(R)-4-(2-{3-(8-azabicyclo[3.2.1]oct-8-yl)-1-propynyl}-4-pyrimidinyl)-5-methyl-1,4-diazepan-1-y1]-6-amino-3-pyridazinyl}phenol]",< 50 nM,30 to 70%,< 50 nM,++ (++=30-70%)
"C[C@@H]1CCN(c2cc(-c3ccccc3O)nnc2N)CCN1c1ccnc(C#CCN2CCC3(CCC3)C2)n1 [Compound P-237, o-{5-[(R)-4-(2-{3-(6-aza-6-spiro| 3.4 | octyl)-1-propynyl}-4-pyrimidinyl)-5-methyl-1,4-diazepan-1-yl]-6-amino-3-pyridazinyl} phenol]",< 50 nM,30 to 70%,< 50 nM,+++ (+++=>70%)
"C[C@H]1CCN(c2cc(-c3ccccc3O)nnc2N)CCN1c1ccnc(C#CCNC(=O)c2cnc3ccccc3n2)n1 [Compound P-101, (S)-N-(3-(4-(4-(3-amino-6-(2-hydroxyphenyl)pyridazin-4-yl)-7-methyl-1,4-diazepan-1-yl)pyrimidin-2-y1)prop-2-yn-1-yl)quinoxaline-2-carboxamide]",< 50 nM,> 70%,< 50 nM,+++ (+++=>70%)
"Nc1nnc(-c2ccccc2O)cc1N1CCN(c2ccnc(C#CCNC(=O)c3cc4ccc(F)cc4o3)n2)CC1 [Compound P-52, N-(3-(4-(4-(3-amino-6-(2-hydroxyphenyl)pyridazin-4-yl)piperazin-1-yl)pyrimidin-2-yl)prop-2-yn-1-yl)-6-fluorobenzofuran-2-carboxamide]",50 to 500 nM,30 to 70%,50 to 500 nM,++ (++=30-70%)

# Reference: patent US20260265238A1, “COMPOUNDS AND PHARMACEUTICAL COMPOSITIONS THAT DEGRADE SWI/SNF-RELATED MATRIX-ASSOCIATED ACTIN-DEPENDENT REGULATOR OF CHROMATIN SUBFAMILY A” (Plexium, Inc., priority 2023, published 2026)
